What was measured:
Test in all cases: Cell proliferation assay (Alamar Blue)
Format in all cases: cell-based
SNU398 = SNU398 liver cancer cell line, 6 days culture
Description: (§1) 1. Instruments and Materials • Thermo 311 CO2 incubator; Haier biosafety cabinet; Molecular Devices microplate reader; Xiangyi brand L530 desktop low speed centrifuge; Olympus IX51 inverted fluorescence microscope, DMEM, RPMI 1640, MEM, DMEM/F12 1:1 medium, Fetal bovine serum, 0.25% trypsin solution, phosphate buffer (Thermo Fisher Shanghai Co., Ltd.); sigma dimethyl sulfoxide (DMSO), resazurin; 54 commercial tumor cell lines (including 26 liver cancer cell lines). Experimental drugs: compounds 1-12 and active drug Linifanib; chemotherapeutic drug Doxorubicin (HY-15142; Shanghai Qianyuan Biomedical Technology Co., Ltd.).
(§2) 2. Experimental Methods • 2.1 Cultivation of Different Cell Lines • 54 cell lines were cultured in a culture medium containing fetal bovine serum and placed in a 5% CO2 incubator at 37° C. for incubation. The cells were all grown in an adherent state, and the growth was observed under an inverted microscope, and subculture was performed when the cell confluence rate reached 80%-90%. The proportion and quantity of passage were determined by experimental needs. The ratio of subculture of this cell line was generally 1:2^˜1:3. • 2.2 Inhibition Effect on the Proliferation of Different Tumor Cell Lines • Cell test: 54 cell lines in logarithmic growth phase were inoculated in 96-well culture plates at 500^˜1×10^4/well (the optimal seeding density of each cell line was determined in pre-experiment), After incubating at 37° C. for 4 h in a 5% CO2 humidification incubator, added 10 μL of compounds 1-12 or Linifanib to each well, and tested 9 drug concentration gradients for each compound (diluted from the highest concentration of the test by 3.16 times). The solubility of each compound was different at a starting concentration of 100 or 30 μM, respectively. The QC reference compound Doxorubicin was added simultaneously to each cell line test, and the final drug concentrations were 10, 3.16, 1, 0.31, 0.1, 0.03, 0.01, 0.003, and 0.001 μM, respectively. In addition, a positive control group (100% inhibition) and a negative control group (0% inhibition) were set at the same time. The drug group was repeated for 2 wells per concentration, and the positive control group and the negative control group were repeated for 6 wells. After the culture was continued for 6 days in the incubator, AlamarBlue test operation was followed; • AlamarBlue test procedure: Incubated with 10 μL of AlamarBlue reagent per well for 1-4 h, shook for 1-2 min, MD microplate reader EX: 560 nm, EM: 590 nm wavelength to measure fluorescence, recorded the results, calculated the cell inhibition rate of the compound of the invention. Cell inhibition rate (%)=(A0% inhibition−A administration)/(A0% inhibition−A100% inhibition)×100%, and then using the method of nonlinear regression using GraphPad Prism 5.0 or MATILAB software (usually using four parameters) to graph and obtain a drug dose response curve to obtain an IC50 value of the compound of the present invention acting on a cancer cell line.

MDA-MB-231 = MDA-MB-231 tumor cell line, 6 days culture
Description: as §1, §2

NCI-H661 = NCI-H661 tumor cell line, 6 days culture
Description: as §1, §2

HLF = HLF liver cancer cell line, 6 days culture
Description: as §1, §2

Alexander cells = Alexander cells liver cancer cell line, 6 days culture
Description: as §1, §2

AN3CA = AN3CA tumor cell line, 6 days culture
Description: as §1, §2

KM12 = KM12 tumor cell line, 6 days culture
Description: as §1, §2

DLD1 = DLD1 tumor cell line, 6 days culture
Description: as §1, §2

SNU739 = SNU739 liver cancer cell line, 6 days culture
Description: as §1, §2

HUH6 = HUH6 liver cancer cell line, 6 days culture
Description: as §1, §2

JHH6 = JHH6 liver cancer cell line, 6 days culture
Description: as §1, §2

SNU387 = SNU387 liver cancer cell line, 6 days culture
Description: as §1, §2

LC-2-ad = LC-2-ad tumor cell line, 6 days culture
Description: as §1, §2

KASUMI-1 = KASUMI-1 (leukemia cells), 6 days culture
Description: as §1, §2

HUH1 = HUH1 liver cancer cell line, 6 days culture
Description: as §1, §2

K562 = K562 tumor cell line, 6 days culture
Description: as §1, §2

SNU886 = SNU886 liver cancer cell line, 6 days culture
Description: as §1, §2

SW620 = SW620 tumor cell line, 6 days culture
Description: as §1, §2

NCI-H716 = NCI-H716 tumor cell line, 6 days culture
Description: as §1, §2

NCI-H1648 = NCI-H1648 tumor cell line, 6 days culture
Description: as §1, §2

TE-15 = TE-15 tumor cell line, 6 days culture
Description: as §1, §2

T.T = T.T tumor cell line, 6 days culture
Description: as §1, §2

SNU423 = SNU423 liver cancer cell line, 6 days culture
Description: as §1, §2

LNCAP-clone-FGC = LNCAP-clone-FGC tumor cell line, 6 days culture
Description: as §1, §2

HLE = HLE liver cancer cell line, 6 days culture
Description: as §1, §2

JHH7 = JHH7 liver cancer cell line, 6 days culture
Description: as §1, §2

TE-6 = TE-6 tumor cell line, 6 days culture
Description: as §1, §2

SNU761 = SNU761 liver cancer cell line, 6 days culture
Description: as §1, §2

Cc1ccc(F)c(NC(=O)Nc2ccc(-c3cccc4[nH]nc(NC(=O)CCCCCCCCCCCNC(=O)C[C@H](N)C(=O)N[C@@H](CCC(=O)N[C@@H](CCC(=O)N[C@@H](CCC(=O)N[C@@H](CCC(=O)O)C(=O)O)C(=O)O)C(=O)O)C(=O)O)c34)cc2)c1 [Compound 8]
IC50 (SNU398; Homo sapiens, SNU-398, 144 h): > 100 µM
IC50 (MDA-MB-231; Homo sapiens, 144 h): > 100 µM
IC50 (NCI-H661; Homo sapiens, 144 h): > 100 µM
IC50 (HLF; 144 h): > 100 µM
IC50 (Alexander cells; 144 h): > 100 µM
IC50 (AN3CA; Homo sapiens, AN3-CA, 144 h): 5.68 µM
IC50 (KM12; Homo sapiens, 144 h): > 100 µM
IC50 (DLD1; Homo sapiens, DLD-1, 144 h): > 100 µM
IC50 (SNU739; SNU-739, 144 h): > 100 µM
IC50 (HUH6; Homo sapiens, HuH-6, 144 h): > 100 µM
IC50 (JHH6; 144 h): > 100 µM
IC50 (SNU387; Homo sapiens, SNU-387, 144 h): > 100 µM
IC50 (LC-2-ad; Homo sapiens, 144 h): 82.4 µM
IC50 (KASUMI-1; Homo sapiens, 144 h): 0.39 µM
IC50 (HUH1; Homo sapiens, HuH-1, 144 h): > 100 µM
IC50 (K562; Homo sapiens, 144 h): > 100 µM
IC50 (SNU886; SNU-886, 144 h): > 100 µM
IC50 (SW620; Homo sapiens, SW-620, 144 h): 65.3 µM
IC50 (NCI-H716; Homo sapiens, 144 h): 44.9 µM
IC50 (NCI-H1648; Homo sapiens, 144 h): > 100 µM
IC50 (TE-15; Homo sapiens, 144 h): > 100 µM
IC50 (T.T; Homo sapiens, TT, 144 h): > 100 µM
IC50 (SNU423; Homo sapiens, SNU-423, 144 h): > 100 µM
IC50 (LNCAP-clone-FGC; Homo sapiens, 144 h): > 100 µM
IC50 (HLE; Homo sapiens, 144 h): > 100 µM
IC50 (JHH7; 144 h): 94.9 µM
IC50 (TE-6; Homo sapiens, 144 h): > 100 µM
IC50 (SNU761; 144 h): > 100 µM

Cc1ccc(F)c(NC(=O)Nc2ccc(-c3cccc4[nH]nc(NC(=O)CCCCCCCCCCCNC(=O)C[C@H](N)C(=O)N[C@@H](CCC(=O)N[C@@H](CCC(=O)N[C@@H](CCC(=O)N[C@@H](CCC(=O)N[C@@H](CCC(=O)N[C@@H](CCC(=O)N[C@@H](CCC(=O)N[C@@H](CCC(=O)N[C@@H](CCC(=O)O)C(=O)O)C(=O)O)C(=O)O)C(=O)O)C(=O)O)C(=O)O)C(=O)O)C(=O)O)C(=O)O)c34)cc2)c1 [Compound 9]
IC50 (SNU398): > 100 µM
IC50 (MDA-MB-231): > 100 µM
IC50 (NCI-H661): > 100 µM
IC50 (HLF): > 100 µM
IC50 (Alexander cells): > 100 µM
IC50 (AN3CA): 10.3 µM
IC50 (KM12): > 100 µM
IC50 (DLD1): > 100 µM
IC50 (SNU739): > 100 µM
IC50 (HUH6): > 100 µM
IC50 (JHH6): > 100 µM
IC50 (SNU387): > 100 µM
IC50 (LC-2-ad): > 100 µM
IC50 (KASUMI-1): 0.87 µM
IC50 (HUH1): > 100 µM
IC50 (K562): > 100 µM
IC50 (SNU886): > 100 µM
IC50 (SW620): > 100 µM
IC50 (NCI-H716): 77.2 µM
IC50 (NCI-H1648): > 100 µM
IC50 (TE-15): > 100 µM
IC50 (T.T): > 100 µM
IC50 (SNU423): > 100 µM
IC50 (LNCAP-clone-FGC): > 100 µM
IC50 (HLE): > 100 µM
IC50 (JHH7): > 100 µM
IC50 (TE-6): > 100 µM
IC50 (SNU761): > 100 µM

Reference: patent US11712434B2, “Compound having anti-cancer effect, and preparation method therefor and use thereof” (3D MEDICINES (BEIJING) CO., LTD., priority 2016, dated 2023)
